Source: ChEMBL document CHEMBL3860056, “In vitro and in vivo inhibitory activity of 6-amino-2,4,5-trimethylpyridin-3-ols against inflammatory bowel disease” (Bioorg Med Chem Lett, 2016)

Tests used:
[1] = (§1) Antiinflammatory activity in human HT-29 cells assessed as inhibition of TNF-alpha induced BCECF-AM labeled human U937 cell adhesion at 1 uM preincubated for 1 hr followed by stimulation with TNF-alpha for 3 hrs followed by further co-incubation with BCECF-AM labeled human U937 cells for 1 hr by fluorescent/light microscopic analysis; format: functional
Rattus norvegicus [2] = experiment: Antiinflammatory activity in TNBS-induced Sprague-Dawley rat colitis model assessed as body weight recovery at 300 mg/kg/day, po administered for 5 days post 1 day of TNBS-challenge measured daily during compound dosing relative to control; format: functional
Rattus norvegicus [3] = experiment: Antiinflammatory activity in TNBS-induced Sprague-Dawley rat colitis model assessed as colon weight recovery at 300 mg/kg/day, po administered for 5 days post 1 day of TNBS-challenge relative to control; format: functional
Rattus norvegicus [4] = experiment: Antiinflammatory activity in TNBS-induced Sprague-Dawley rat colitis model assessed as inhibition of myeloperoxidase level in colon at 300 mg/kg/day, po administered for 5 days post 1 day of TNBS-challenge by colorimetric method relative to control; format: functional
Rattus norvegicus [5] = experiment: Antiinflammatory activity in po dosed TNBS-induced Sprague-Dawley rat colitis model assessed as recovery of increase in colon wet weight administered for 5 days post 1 day of TNBS-challenge; format: functional, organism-based
Rattus norvegicus [6] = experiment: Antiinflammatory activity in TNBS-induced Sprague-Dawley rat colitis model assessed as body weight recovery at 1 mg/kg/day, po administered for 5 days post 1 day of TNBS-challenge measured daily during compound dosing relative to control; format: functional
Rattus norvegicus [7] = experiment: Antiinflammatory activity in po dosed TNBS-induced Sprague-Dawley rat colitis model assessed as reduction in colon edema and adhesion administered for 5 days post 1 day of TNBS-challenge by microscopic analysis; format: functional, organism-based
Rattus norvegicus [8] = species on record: Rattus norvegicus; experiment: Potency index, ratio of compound efficacy to sulfasalazine efficacy in TNBS-induced Sprague-Dawley rat colitis model assessed as inhibition of MPO level in colon; format: functional
Rattus norvegicus [9] = experiment: Antiinflammatory activity in TNBS-induced Sprague-Dawley rat colitis model assessed as colon weight recovery at 10 mg/kg/day, po administered for 5 days post 1 day of TNBS-challenge relative to control; format: functional
Rattus norvegicus [10] = experiment: Antiinflammatory activity in TNBS-induced Sprague-Dawley rat colitis model assessed as body weight recovery at 0.1 mg/kg/day, po administered for 5 days post 1 day of TNBS-challenge measured daily during compound dosing relative to control; format: functional
[11] = as §1, with “adhesion” for “adhesion at 1 uM”; format: functional, cell-based
Rattus norvegicus [12] = experiment: Antiinflammatory activity in TNBS-induced Sprague-Dawley rat colitis model assessed as colon weight recovery at 0.1 mg/kg/day, po administered for 5 days post 1 day of TNBS-challenge relative to control; format: functional
Rattus norvegicus [13] = experiment: Antiinflammatory activity in TNBS-induced Sprague-Dawley rat colitis model assessed as colon weight recovery at 1 mg/kg/day, po administered for 5 days post 1 day of TNBS-challenge relative to control; format: functional
Rattus norvegicus [14] = experiment: Antiinflammatory activity in po dosed TNBS-induced Sprague-Dawley rat colitis model assessed as body weight recovery compound administered for 5 days post 1 day of TNBS-challenge measured daily during compound dosing; format: functional, organism-based
Rattus norvegicus [15] = species on record: Rattus norvegicus; experiment: Potency index, ratio of compound efficacy to sulfasalazine efficacy in TNBS-induced Sprague-Dawley rat colitis model assessed as body weight recovery; format: functional
Rattus norvegicus [16] = species on record: Rattus norvegicus; experiment: Potency index, ratio of compound efficacy to sulfasalazine efficacy in TNBS-induced Sprague-Dawley rat colitis model assessed as colon weight recovery; format: functional
Rattus norvegicus [17] = experiment: Antiinflammatory activity in TNBS-induced Sprague-Dawley rat colitis model assessed as inhibition of myeloperoxidase level in colon at 10 mg/kg/day, po administered for 5 days post 1 day of TNBS-challenge by colorimetric method relative to control; format: functional
Rattus norvegicus [18] = experiment: Antiinflammatory activity in TNBS-induced Sprague-Dawley rat colitis model assessed as body weight recovery at 10 mg/kg/day, po administered for 5 days post 1 day of TNBS-challenge measured daily during compound dosing relative to control; format: functional
Rattus norvegicus [19] = experiment: Antiinflammatory activity in TNBS-induced Sprague-Dawley rat colitis model assessed as inhibition of myeloperoxidase level in colon at 0.1 mg/kg/day, po administered for 5 days post 1 day of TNBS-challenge by colorimetric method relative to control; format: functional
Rattus norvegicus [20] = experiment: Antiinflammatory activity in TNBS-induced Sprague-Dawley rat colitis model assessed as inhibition of myeloperoxidase level in colon at 1 mg/kg/day, po administered for 5 days post 1 day of TNBS-challenge by colorimetric method relative to control; format: functional
[21] = as §1, with “20 mM” for “1 uM”; format: functional

Cc1cccc(Nc2nc(C)c(O)c(C)c2C)c1
inhibition at 1 µM [1]: 74%

Cc1nc(N(C)c2ccccc2)c(C)c(C)c1O
inhibition at 1 µM [1]: 58.1%

CCCCCCCCCCc1ccc(Nc2nc(C)c(O)c(C)c2C)cc1
inhibition at 1 µM [1]: 76.6%

Cc1nc(Nc2cccc([N+](=O)[O-])c2)c(C)c(C)c1O
inhibition at 1 µM [1]: 18.5%

Cc1nc(N2CCCCC2)c(C)c(C)c1O
inhibition at 1 µM [1]: 47.9%

Cc1nc(Nc2ccc3c(c2)OCO3)c(C)c(C)c1O
inhibition at 1 µM [1]: 26.5%

Cc1nc(NC2CCCC2)c(C)c(C)c1O
inhibition at 1 µM [1]: 73.3%

Cc1nc(Nc2cccc(Cl)c2)c(C)c(C)c1O
inhibition at 1 µM [1]: 42.5%

Cc1nc(N(C)c2ccc(F)cc2)c(C)c(C)c1O
inhibition at 1 µM [1]: 77.2%

O=C(O)c1cc(/N=N/c2ccc(S(=O)(=O)Nc3ccccn3)cc2)ccc1O [SULFASALAZINE]
Activity (Rattus norvegicus [2]): 55.6% | Activity (Rattus norvegicus [3]): 67.1% | inhibition in vivo at 300 mg/kg/day (Rattus norvegicus [4]): 58.6%

Cc1nc(Nc2ccc(F)cc2)c(C)c(C)c1O
inhibition at 1 µM [1]: 71.5%

CCCCCCNc1nc(C)c(O)c(C)c1C
inhibition at 1 µM [1]: 28.4%

COc1ccc(Nc2nc(C)c(O)c(C)c2C)cc1
inhibition at 1 µM [1]: 14%

Cc1nc(Nc2ccc(Br)cc2)c(C)c(C)c1O
inhibition at 1 µM [1]: 47.2%

Cc1nc(NCc2ccc(C(C)(C)C)cc2)c(C)c(C)c1O
inhibition at 1 µM [1]: 49.2%

Cc1nc(N(C)c2ccc(Cl)cc2)c(C)c(C)c1O
inhibition at 1 µM [1]: 65.2%

Cc1nc(N2CCN(C)CC2)c(C)c(C)c1O
inhibition at 1 µM [1]: 47.6%

Cc1ccc(Nc2nc(C)c(O)c(C)c2C)cc1
inhibition at 1 µM [1]: 84.4%

CCCc1ccc(Nc2nc(C)c(O)c(C)c2C)cc1
Activity (Rattus norvegicus [5]): Dose-dependent effect | Activity (Rattus norvegicus [6]): 58.3% | Activity (Rattus norvegicus [7]): Dose-dependent effect | Ratio (Rattus norvegicus [8]): >300 | Activity (Rattus norvegicus [9]): 88.6% | Activity (Rattus norvegicus [10]): 47.2% | IC50 [11]: 0.00019 mM | Activity (Rattus norvegicus [12]): 56.6% | Activity (Rattus norvegicus [13]): 72.6% | Activity (Rattus norvegicus [14]): Dose-dependent effect | Ratio (Rattus norvegicus [15]): >300 | Ratio (Rattus norvegicus [16]): >300 | inhibition in vivo at 10 mg/kg/day (Rattus norvegicus [17]): 96.3% | Activity (Rattus norvegicus [18]): 69.9% | inhibition in vivo at 0.1 mg/kg/day (Rattus norvegicus [19]): 55.4% | inhibition at 1 µM [1]: 77.9% | inhibition in vivo at 1 mg/kg/day (Rattus norvegicus [20]): 79.9%

Cc1nc(-n2cccc2)c(C)c(C)c1O
inhibition at 1 µM [1]: 56.1%

Cc1nc(Nc2cccc(F)c2)c(C)c(C)c1O
inhibition at 1 µM [1]: 16.3%

Cc1nc(Nc2cccc(OC(C)C)c2)c(C)c(C)c1O
inhibition at 1 µM [1]: 24.9%

CCCCCCCCCCCCCCCCNc1nc(C)c(O)c(C)c1C
inhibition at 1 µM [1]: 26.9%

Cc1nc(N(c2ccccc2)c2ccc3ccccc3c2)c(C)c(C)c1O
inhibition at 1 µM [1]: 13.4%

Cc1nc(N(c2ccccc2)c2ccccc2)c(C)c(C)c1O
inhibition at 1 µM [1]: 41.3%

Cc1nc(Nc2ccc(Oc3ccccc3)cc2)c(C)c(C)c1O
inhibition at 1 µM [1]: 17.3%

Cc1nc(Nc2ccccc2C(C)C)c(C)c(C)c1O
inhibition at 1 µM [1]: 37.8%

Cc1nc(Nc2cccc(Br)c2)c(C)c(C)c1O
inhibition at 1 µM [1]: 20.5%

Cc1ccc(N(C)c2nc(C)c(O)c(C)c2C)cc1
inhibition at 1 µM [1]: 67.4%

Cc1nc(Nc2ccc([N+](=O)[O-])cc2)c(C)c(C)c1O
inhibition at 1 µM [1]: 39%

Cc1nc(Nc2ccc(C(C)(C)C)cc2)c(C)c(C)c1O
inhibition at 1 µM [1]: 27.3%

Cc1nc(N2CCOCC2)c(C)c(C)c1O
inhibition at 1 µM [1]: 67.7%

Cc1cccc(N(C)c2nc(C)c(O)c(C)c2C)c1
inhibition at 1 µM [1]: 63.2%

Cc1nc(NC2CCCCC2)c(C)c(C)c1O
inhibition at 1 µM [1]: 36%

Cc1nc(Nc2cccc3ccccc23)c(C)c(C)c1O
inhibition at 1 µM [1]: 52.4%

Cc1nc(N)c(C)c(C)c1O
inhibition at 1 µM [1]: 22.9%

Cc1nc(N2CCC(C(O)(c3ccccc3)c3ccccc3)CC2)c(C)c(C)c1O
inhibition at 1 µM [1]: -7%

Cc1nc(NCc2ccccc2)c(C)c(C)c1O
inhibition at 1 µM [1]: 35.7%

Cc1nc(Nc2ccc(Cl)cc2)c(C)c(C)c1O
inhibition at 1 µM [1]: 28.4%

Cc1nc(NCc2ccc(-c3ccccc3)cc2)c(C)c(C)c1O
inhibition at 1 µM [1]: 1.3%

Cc1nc(Nc2ccccc2)c(C)c(C)c1O
inhibition at 1 µM [1]: 73.6%

Cc1nc(NCCCO)c(C)c(C)c1O
inhibition at 1 µM [1]: 19%

Nc1ccc(O)c(C(=O)O)c1 [MESALAMINE]
IC50 [11]: 18.1 mM | inhibition at 20000 µM [21]: 52.7% | inhibition at 1 µM [1]: 3.8%

Nc1cccc2c1CN(C1CCC(=O)NC1=O)C2=O (stereo not given) [LENALIDOMIDE]
inhibition at 1 µM [1]: 64.6%

Cc1nc(N2CCCC2)c(C)c(C)c1O
inhibition at 1 µM [1]: 36.7%
